Test results published in US8552013B2, “Heterocyclic compounds based on N6-substituted adenine, methods of their preparation, their use for preparation of drugs, cosmetic preparations and growth regulators, pharmaceutical preparations, cosmetic preparations and growth regulators containing these compounds” (USTAV Experimentalni Botaniky Akademie Ved Ceske Republiky, priority 2001, dated 2013).

What was measured:
HOS = test: Calcein AM cytotoxicity, HOS; type: cell-based; settings: Homo sapiens, HOS, 72 h
[1] = system: Amaranthus caudatus cotyledon/hypocotyl explants; test: Amaranthus bioassay, betacyanin content; type: in vivo; settings: betacyanin content at the concentration with highest activity
[2] = system: Triticum aestivum cv. Hereward leaf tips; test: Retention of chlorophyll in excised wheat leaf tips; type: in vivo; settings: chlorophyll retention at the concentration with highest activity
In short: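 Tips of first leaves from 7-day wheat (cv. Hereward) seedlings kept on compound solutions (10^−8 to 10^−4 M, from DMSO stock) for 96 h in the dark at 25 °C. Chlorophyll extracted in 80% ethanol at 80 °C and read at 665 nm. Activity at the best concentration expressed relative to 10^−4 M BAP (100%), five replicates.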

[3] = system: tobacco callus Nicotiana tabacum L. cv. Wisconsin 38; test: Cytokinin-dependent tobacco callus growth; type: cell-based; settings: fresh callus weight at the concentration with highest activity

Oc1cccc(CNc2ncnc3nc[nH]c23)c1 [meta-topolin, 6-(3-hydroxybenzylamino)purine]
IC50 (HOS): > 167 µM

Fc1cccc(CNc2ncnc3nc[nH]c23)c1 [6-(3-fluorobenzylamino)purine]
activity (%) [10^−5 mol · l^−1 BAP = 100%] [1]: 140 (±5) % | IC50 (HOS): > 167 µM | Activity (%) [10^−4 mol · l^−1 BAP = 100%] [2]: 200 (±25) % | Activity (%) [10^−4 mol · l^−1 BAP = 100%] [3]: 135 (±8) %

Ic1cccc(CNc2ncnc3nc[nH]c23)c1 [6-(3-iodobenzylamino)purine]
activity (%) [10^−5 mol · l^−1 BAP = 100%] [1]: 79 (±3) % | IC50 (HOS): > 167 µM | Activity (%) [10^−4 mol · l^−1 BAP = 100%] [2]: 83.5 (±23) % | Activity (%) [10^−4 mol · l^−1 BAP = 100%] [3]: 76 (±8) %

Cc1ccccc1CNc1ncnc2nc[nH]c12 [6-(2-methylbenzylamino)purine]
activity (%) [10^−5 mol · l^−1 BAP = 100%] [1]: 98 (±22) % | IC50 (HOS): > 167 µM | Activity (%) [10^−4 mol · l^−1 BAP = 100%] [2]: 158 (±29) % | Activity (%) [10^−4 mol · l^−1 BAP = 100%] [3]: 118 (±3) %

Cc1ccc(CNc2ncnc3nc[nH]c23)cc1 [6-(4-methylbenzylamino)purine]
activity (%) [10^−5 mol · l^−1 BAP = 100%] [1]: 26 (±10) % | IC50 (HOS): > 167 µM | Activity (%) [10^−4 mol · l^−1 BAP = 100%] [2]: 35 (±23) % | Activity (%) [10^−4 mol · l^−1 BAP = 100%] [3]: 52 (±8) %

COc1cccc(CNc2ncnc3nc[nH]c23)c1 [6-(3-methoxybenzylamino)purine]
activity (%) [10^−5 mol · l^−1 BAP = 100%] [1]: 90 (±16) % | IC50 (HOS): > 167 µM | Activity (%) [10^−4 mol · l^−1 BAP = 100%] [2]: 178 (±16) % | Activity (%) [10^−4 mol · l^−1 BAP = 100%] [3]: 76 (±20) %

Fc1ccccc1CNc1ncnc2nc[nH]c12 [6-(2-fluorobenzylamino)purine]
activity (%) [10^−5 mol · l^−1 BAP = 100%] [1]: 116 (±3) % | IC50 (HOS): > 167 µM | Activity (%) [10^−4 mol · l^−1 BAP = 100%] [2]: 169 (±20) % | Activity (%) [10^−4 mol · l^−1 BAP = 100%] [3]: 111 (±21) %

Oc1ccccc1CNc1ncnc2nc[nH]c12 [ortho-topolin, 6-(2-hydroxybenzylamino)purine]
IC50 (HOS): > 167 µM
